In ChEMBL document CHEMBL1201862, “PubChem BioAssay data set” (2004):
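Grown in 96-well plates, cells were treated for 48 hours with each compound at five concentrations. Insufficient inhibition: endpoint recorded as highest concentration tested. GI50: concentration for 50% inhibition of growth.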 Activity calls are given as the source filed them. No stated cut-off is given here; in the data, active = GI50 up to about 1.1 µM and inactive = higher.

Tests used:
Assay in all cases: NCI anticancer screen, dose series, 48 h
A498 = system: A498
A549 = system: A549
CAKI-1 = system: CAKI-1
DU-145 = system: DU-145
EKVX = system: EKVX
HCT-116 = system: HCT-116
HOP-92 = system: HOP-92
Hs-578T = system: Hs-578T
K562 = system: K562
NCI-H226 = system: NCI-H226
NCI-H522 = system: NCI-H522
OVCAR-3 = system: OVCAR-3
OVCAR-8 = system: OVCAR-8
PC-3 = system: PC-3
RPMI-8226 = system: RPMI-8226
SN12C = system: SN12C
SNB-19 = system: SNB-19
SNB-75 = system: SNB-75
T47D = system: T47D

| SMILES | GI50 (A498) | GI50 (A549) | GI50 (CAKI-1) | GI50 (DU-145) | GI50 (EKVX) | GI50 (HCT-116) | GI50 (HOP-92) | GI50 (Hs-578T) | GI50 (K562) | GI50 (NCI-H226) | GI50 (NCI-H522) | GI50 (OVCAR-3) | GI50 (OVCAR-8) | GI50 (PC-3) | GI50 (RPMI-8226) | GI50 (SN12C) | GI50 (SNB-19) | GI50 (SNB-75) | GI50 (T47D) |
| --- | --- | --- | --- | --- | --- | --- | --- | --- | --- | --- | --- | --- | --- | --- | --- | --- | --- | --- | --- |
| CN1CCC(O)(OC(=O)C(c2ccccc2)C2(O)CCCC2)CC1 (stereo not given) | > 100 µM (inactive) | > 100 µM (inactive) | > 100 µM (inactive) | > 100 µM (inactive) | > 100 µM (inactive) | > 100 µM (inactive) | > 100 µM (inactive) | > 100 µM (inactive) | > 100 µM (inactive) | > 100 µM (inactive) | > 100 µM (inactive) | > 100 µM (inactive) | > 100 µM (inactive) | > 100 µM (inactive) | > 100 µM (inactive) | > 100 µM (inactive) | > 100 µM (inactive) | > 100 µM (inactive) | > 100 µM (inactive) |
| C[C@@H]1CCC[C@]2(C)O[C@H]2CC[C@@](C)(O)[C@@H]2CC3=C(CO)C(=O)O[C@H]3[C@H]1O2 | > 50 µM (inactive) | > 50 µM (inactive) | > 50 µM (inactive) | > 50 µM (inactive) | > 50 µM (inactive) | > 50 µM (inactive) | > 50 µM (inactive) | > 50 µM (inactive) | > 50 µM (inactive) | > 50 µM (inactive) | 28.4 µM (inactive) | > 50 µM (inactive) | > 50 µM (inactive) | > 50 µM (inactive) | 28.1 µM (inactive) | > 50 µM (inactive) | > 50 µM (inactive) | > 50 µM (inactive) | > 50 µM (inactive) |
| C=C1CC(CN2CCC(=O)NC2=O)(c2ccccc2)OC1=O (stereo not given) | 19.2 µM (inactive) | 16.9 µM (inactive) | 2.75 µM (inactive) | 15.9 µM (inactive) | 18.8 µM (inactive) | 3.35 µM (inactive) | 1.45 µM (inactive) | 16.1 µM (inactive) | 2.39 µM (inactive) | 15.6 µM (inactive) | 0.859 µM (active) | 13 µM (inactive) | 16.4 µM (inactive) | 16.1 µM (inactive) | 2.19 µM (inactive) | 17.6 µM (inactive) | > 41.4 µM (inactive) | 18.1 µM (inactive) | 3.13 µM (inactive) |
| NCCOc1cccc(C2(N3CCCCC3)CCCCC2)c1 | 30 µM (inactive) | 37.2 µM (inactive) | 94 µM (inactive) | > 100 µM (inactive) | 21.5 µM (inactive) | 16.2 µM (inactive) | 0.773 µM (active) | 16.9 µM (inactive) | 16 µM (inactive) | > 100 µM (inactive) | 19.1 µM (inactive) | 34.2 µM (inactive) | 33.4 µM (inactive) | 31.5 µM (inactive) | 20.9 µM (inactive) | > 100 µM (inactive) | > 100 µM (inactive) | 32.7 µM (inactive) | 52.6 µM (inactive) |
| CC(C)C[C@H](NC(=O)[C@@H](Cc1cccc2ccccc12)NC(=O)N1CCOCC1)B(O)O | 4.05 µM (inactive) | 19.8 µM (inactive) | 11.1 µM (inactive) | 10.9 µM (inactive) | 14.3 µM (inactive) | 2.24 µM (inactive) | 2.67 µM (inactive) | 3.84 µM (inactive) | 3.55 µM (inactive) | 1.61 µM (inactive) | 1.92 µM (inactive) | 2.61 µM (inactive) | 16.7 µM (inactive) | 7.82 µM (inactive) | 2.52 µM (inactive) | 5.55 µM (inactive) | 9.77 µM (inactive) | 1.18 µM (inactive) | 2.45 µM (inactive) |
| O=C(O)C(Oc1nc(S)nc(S)n1)(c1ccc(Cl)cc1)c1ccc(Cl)cc1 | > 100 µM (inactive) | > 100 µM (inactive) | > 100 µM (inactive) | > 100 µM (inactive) | > 100 µM (inactive) | > 100 µM (inactive) | > 100 µM (inactive) | > 100 µM (inactive) | > 100 µM (inactive) | > 100 µM (inactive) | > 100 µM (inactive) | > 100 µM (inactive) | > 100 µM (inactive) | > 100 µM (inactive) | > 100 µM (inactive) | > 100 µM (inactive) | > 100 µM (inactive) | > 100 µM (inactive) | > 100 µM (inactive) |
| COc1ccc(C2Oc3ccc(Cl)cc3C=C2[N+](=O)[O-])cc1OC (stereo not given) | 3.37 µM (inactive) | 1.83 µM (inactive) | 1.67 µM (inactive) | 1.62 µM (inactive) | 2.72 µM (inactive) | 0.426 µM (active) | 1.88 µM (inactive) | 1.07 µM (active) | 0.164 µM (active) | 1.64 µM (inactive) | 1.05 µM (active) | 0.719 µM (active) | 1.12 µM (active) | 1.32 µM (inactive) | 0.229 µM (active) | 0.871 µM (active) | 1.92 µM (inactive) | 1.13 µM (inactive) | 1.52 µM (inactive) |
| CN(C)c1ccc(/C=C/C=C(/C#N)c2ccccc2)cc1 | 24.3 µM (inactive) | 32.1 µM (inactive) | 33.5 µM (inactive) | 55.7 µM (inactive) | 55.2 µM (inactive) | 16.4 µM (inactive) | 78.7 µM (inactive) | 21.9 µM (inactive) | 4.22 µM (inactive) | 53.1 µM (inactive) | 10.5 µM (inactive) | 9.91 µM (inactive) | 33 µM (inactive) | 39.3 µM (inactive) | 21.9 µM (inactive) | 45.4 µM (inactive) | 30.1 µM (inactive) | 28.4 µM (inactive) | 9.57 µM (inactive) |
| CCC[C@H](C)C[C@H](C)C[C@H](C)/C=C(\C)[C@@H](O)[C@@H](C)C(=O)CC | 25.5 µM (inactive) | 19.9 µM (inactive) | 22.4 µM (inactive) | 23.5 µM (inactive) | 18.8 µM (inactive) | 17.5 µM (inactive) | 20.8 µM (inactive) | 25 µM (inactive) | 18.3 µM (inactive) | 21 µM (inactive) | 17.6 µM (inactive) | 19.7 µM (inactive) | 20.3 µM (inactive) | 20 µM (inactive) | 23.2 µM (inactive) | 18.8 µM (inactive) | 20.3 µM (inactive) | 49.9 µM (inactive) | 23.6 µM (inactive) |
| Nc1nc(N)c(C2=CCN(Cc3ccccc3)CC2)c(=O)[nH]1 | > 100 µM (inactive) | > 100 µM (inactive) | > 100 µM (inactive) | > 100 µM (inactive) | > 100 µM (inactive) | > 100 µM (inactive) | > 100 µM (inactive) | > 100 µM (inactive) | > 100 µM (inactive) | > 100 µM (inactive) | > 100 µM (inactive) | > 100 µM (inactive) | > 100 µM (inactive) | > 100 µM (inactive) | > 100 µM (inactive) | > 100 µM (inactive) | > 100 µM (inactive) | > 100 µM (inactive) | > 100 µM (inactive) |
